Assay results as given in PubChem BioAssay (NCI).
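Exposure lasted 48 hours, with cells grown in 96-well plates and compounds tested at five concentrations. At the TGI there is no net growth.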

Legend:
Test in all cases: inhibition of tumour cell growth, NCI panel, 48 h
786-0 renal = system: 786-0 renal
A498 renal = system: A498 renal
A549 NSCLC = system: A549 NSCLC
ACHN renal = system: ACHN renal
CAKI-1 renal = system: CAKI-1 renal
CCRF-CEM leukemia = system: CCRF-CEM leukemia
COLO 205 colon = system: COLO 205 colon
DLD-1 colon = system: DLD-1 colon
DMS 114 small cell lung = system: DMS 114 small cell lung
DMS 273 small cell lung = system: DMS 273 small cell lung
EKVX NSCLC = system: EKVX NSCLC
HCC-2998 colon = system: HCC-2998 colon
HCT-116 colon = system: HCT-116 colon
HCT-15 colon = system: HCT-15 colon
HL-60(TB) leukemia = system: HL-60(TB) leukemia
HOP-18 NSCLC = system: HOP-18 NSCLC
HOP-62 NSCLC = system: HOP-62 NSCLC
HOP-92 NSCLC = system: HOP-92 NSCLC
HT29 colon = system: HT29 colon
IGROV1 ovarian = system: IGROV1 ovarian
K-562 leukemia = system: K-562 leukemia
KM12 colon = system: KM12 colon
KM20L2 colon = system: KM20L2 colon
LOX IMVI melanoma = system: LOX IMVI melanoma
LXFL 529 NSCLC = system: LXFL 529 NSCLC
M14 melanoma = system: M14 melanoma
M19-MEL melanoma = system: M19-MEL melanoma
MALME-3M melanoma = system: MALME-3M melanoma
MOLT-4 leukemia = system: MOLT-4 leukemia
NCI-H226 lung = system: NCI-H226 lung
NCI-H23 lung = system: NCI-H23 lung
NCI-H460 lung = system: NCI-H460 lung
NCI-H522 lung = system: NCI-H522 lung
OVCAR-3 ovarian = system: OVCAR-3 ovarian
OVCAR-4 ovarian = system: OVCAR-4 ovarian
OVCAR-5 ovarian = system: OVCAR-5 ovarian
OVCAR-8 ovarian = system: OVCAR-8 ovarian
RPMI-8226 leukemia = system: RPMI-8226 leukemia
RXF 393 renal = system: RXF 393 renal
RXF-631 renal = system: RXF-631 renal
SF-268 CNS = system: SF-268 CNS
SF-295 CNS = system: SF-295 CNS
SF-539 CNS = system: SF-539 CNS
SK-MEL-2 melanoma = system: SK-MEL-2 melanoma
SK-MEL-28 melanoma = system: SK-MEL-28 melanoma
SK-MEL-5 melanoma = system: SK-MEL-5 melanoma
SK-OV-3 ovarian = system: SK-OV-3 ovarian
SN12C renal = system: SN12C renal
SNB-19 CNS = system: SNB-19 CNS
SNB-75 CNS = system: SNB-75 CNS
SW-620 colon = system: SW-620 colon
TK-10 renal = system: TK-10 renal
U251 CNS = system: U251 CNS
UACC-62 melanoma = system: UACC-62 melanoma
SNB-78 CNS = system: SNB-78 CNS
UACC-257 melanoma = system: UACC-257 melanoma
UO-31 renal = system: UO-31 renal

Measured: TGI

Cc1cc(=O)oc2cc(OCc3nc4ccccc4c(=O)n3-c3ccccc3)ccc12
97.7 µM: SNB-19 CNS
96.4 µM: HOP-92 NSCLC
46.7 µM: SNB-75 CNS
not listed: SNB-78 CNS | UACC-257 melanoma | UO-31 renal
> 100 µM: all other assays above

COc1c(C)c(O)c2c(=O)cc(-c3ccccc3)oc2c1C
not listed: COLO 205 colon | DMS 273 small cell lung | HL-60(TB) leukemia | RPMI-8226 leukemia | RXF 393 renal | SNB-19 CNS
> 100 µM: all other assays above
